Assay [1] has as its system adult Human Dermal Fibroblasts (HDFa). The experiment in a line: Fibrin-in-fibrin HDFa migration assay (radial invasion). The assay is classed as cell-based. The conditions noted are these: 220 KIU of aprotinin in the media. How it is done: This migration assay is based on a fibrin-in-fibrin assay: when a volume of HDFa-laden fibrinogen solution is injected into a gelling fibrinogen-based formulation, cells migrate from the clot into the surrounding matrix; the maximum distance covered in the unit time [Fig. 8(a) top and insert in the bottom graph] is a measure of the cell migration capacity. This model is particularly advantageous to assess the migration of cells separately from other phenomena; for example, if seeded homogeneously and/or moving as a coherent front, cells can rapidly remodel and contract the matrix,[41] and this can profoundly influence the characteristics of their migration too.[42]
Standard cell culture methods are reported in the supplementary material, Sec. 1.4SI. For the migration assays, adult Human Dermal Fibroblasts (HDFa) were gently suspended in 12.5 mg/ml fibrinogen (in HBS) at a final cell density of 3 × 10^7 cells/ml. […] The cell migration rate was measured by analyzing acquired images with ImageJ (v1.49p, http://rsb.info.nih.gov/ij): the migration area was approximated to a circle and the cell invasion was thus quantified as the variation of the initial diameter, as previously reported by Lutolf et al.[28] An average of nine time points per diameter were measured from day 0 to 8, returning the average migration rate (μm/day). […]

For the next assay, the system named is fibrin clotting. As to conditions: cited from earlier work.
Assay [2] has as its target T1, fibrinogen (Bos taurus, UniProt P02672+P02676+P12799).
T1 sequence (P12799 25-444): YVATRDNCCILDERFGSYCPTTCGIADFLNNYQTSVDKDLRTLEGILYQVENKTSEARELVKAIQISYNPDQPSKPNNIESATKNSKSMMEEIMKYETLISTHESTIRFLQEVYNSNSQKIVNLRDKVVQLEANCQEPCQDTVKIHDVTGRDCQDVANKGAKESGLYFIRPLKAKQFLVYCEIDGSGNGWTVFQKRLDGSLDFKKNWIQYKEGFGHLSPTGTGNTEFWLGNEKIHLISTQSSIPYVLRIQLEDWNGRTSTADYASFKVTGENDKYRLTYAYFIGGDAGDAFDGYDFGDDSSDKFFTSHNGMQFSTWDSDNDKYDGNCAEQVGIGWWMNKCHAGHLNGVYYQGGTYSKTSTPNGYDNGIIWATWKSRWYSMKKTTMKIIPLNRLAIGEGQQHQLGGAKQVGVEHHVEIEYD
T1 sequence (P02676 1-468): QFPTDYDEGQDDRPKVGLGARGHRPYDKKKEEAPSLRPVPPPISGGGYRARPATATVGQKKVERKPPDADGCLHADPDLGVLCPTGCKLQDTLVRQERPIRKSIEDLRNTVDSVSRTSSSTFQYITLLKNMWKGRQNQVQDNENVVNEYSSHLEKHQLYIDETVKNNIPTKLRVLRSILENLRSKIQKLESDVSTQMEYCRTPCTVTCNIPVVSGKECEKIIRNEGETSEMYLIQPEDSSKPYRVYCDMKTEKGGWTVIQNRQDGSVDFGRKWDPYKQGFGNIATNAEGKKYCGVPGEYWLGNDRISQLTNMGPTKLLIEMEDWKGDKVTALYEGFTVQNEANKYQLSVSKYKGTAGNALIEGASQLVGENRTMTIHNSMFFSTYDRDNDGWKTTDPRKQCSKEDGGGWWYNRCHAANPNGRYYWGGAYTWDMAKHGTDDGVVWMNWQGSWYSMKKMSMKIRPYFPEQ
T1 sequence (P02672 20-615 partner): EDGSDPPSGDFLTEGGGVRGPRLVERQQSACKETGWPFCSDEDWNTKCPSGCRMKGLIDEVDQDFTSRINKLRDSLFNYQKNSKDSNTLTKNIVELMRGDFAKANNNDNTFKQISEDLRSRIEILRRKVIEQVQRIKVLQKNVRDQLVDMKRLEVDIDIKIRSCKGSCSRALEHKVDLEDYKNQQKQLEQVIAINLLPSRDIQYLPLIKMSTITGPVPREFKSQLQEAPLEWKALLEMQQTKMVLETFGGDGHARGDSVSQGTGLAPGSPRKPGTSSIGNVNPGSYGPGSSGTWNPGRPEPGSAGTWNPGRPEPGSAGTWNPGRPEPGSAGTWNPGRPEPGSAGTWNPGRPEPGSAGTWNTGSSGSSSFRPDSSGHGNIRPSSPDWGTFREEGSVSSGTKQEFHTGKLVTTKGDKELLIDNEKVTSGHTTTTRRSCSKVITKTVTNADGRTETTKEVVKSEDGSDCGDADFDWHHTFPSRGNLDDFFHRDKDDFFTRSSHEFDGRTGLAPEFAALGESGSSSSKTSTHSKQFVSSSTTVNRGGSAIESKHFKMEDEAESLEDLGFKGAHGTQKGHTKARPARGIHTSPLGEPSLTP
As to the kind of experiment: Fluorescence anisotropy (FA) competition experiments (displacement of 5IAF-peptides from fibrinogen). As to conditions: 36 μM fibrinogen pre-complexed with 5IAF-pep1 (0.25 μM) or 5IAF-pep2 (0.8 μM), displaced by PEG-peptide, 1 h 37 °C, HBS; n = 3. The assay is classed as binding. As for the experimental part: (§1) Two techniques were used to confirm that PEG-peptides retained the ability to bind to fibrinogen (Fig. 1 and Table I, right): Fluorescence Anisotropy (FA) and Isothermal Titration Calorimetry (ITC). In FA measurements [Fig. 1(a)], the dissociation constant (Kd) was determined via saturation experiments for the non-conjugated peptides, and via competition experiments for the PEG-peptides. In the first case, saturation was achieved by adding increasing amounts of fibrinogen to a given amount of fluorescein-labelled peptides. In competition experiments, fibrinogen was pre-complexed with fluorescein-labelled peptides; these low molecular weight fluorophores were displaced upon addition of non-labelled conjugates, with a corresponding decrease in the polarization of the emitted light (smaller tumbling time).
Fibrinogen/5IAF-pep1 or 5IAF-pep2 complexes were prepared as described in the saturation experiments using 50 μl initial volumes and keeping the fibrinogen concentration fixed. Solutions were pre-incubated for 1 h at room temperature before 50 μl of PEG-peptide 1 or 2 solutions in HBS was added into the wells to obtain a final volume of 150 μl per well. Final concentrations were 36 μM fibrinogen; 0.25 μM 5IAF-pep1 and 0.6 μM to 1.2 mM PEG-pep1; 0.8 μM 5IAF-pep2; and 0.2 μM to 5 mM PEG-pep2. Polarization values were measured after 1 h of incubation at 37 °C. […]

A further assay concerns the target T2, bovine fibrinogen (Bos taurus, UniProt P02672+P02676+P12799).
T2 sequence (P12799 25-444): T1 sequence (P12799 25-444)
T2 sequence (P02676 1-468): T1 sequence (P02676 1-468)
T2 sequence (P02672 20-615 partner): T1 sequence (P02672 20-615 partner)
The experiment in a line: Isothermal titration calorimetry (ITC) binding to fibrinogen. As to conditions: ITC in HBS; peptides 5.7-5.9 mM titrated into 0.175 mM fibrinogen; PEG-pep1 1.7 mM or PEG-pep2 5.2 mM into 0.012 mM fibrinogen; n = 3 independent samples. How it is done: as §1
The sample cell for this study can contain up to 270 μl of liquid. Fibrinogen/peptide samples were prepared adding 2 μl aliquots of peptide solution (5.91, 5.92, and 5.73 mM for Pep1, Pep2, and Pep3, respectively) under continuous stirring to 200 μl of 0.175 mM of bovine fibrinogen solution. Fibrinogen/PEG-peptide complexes were prepared adding 2 μl of 1.7 mM of PEG-pep1 or 5.2 mM of PEG-pep2 to 200 μl of 0.012 mM of bovine fibrinogen solution. Note that fibrinogen was prepared as follow: 60 mg of fibrinogen were dissolved in 1 mL HBS for 2 h at 37 °C and then dialyzed (Float-A-Lyzer G2 MWCO: 0.5–1 kDa, Spectrum, Inc.) against HBS for 24 h.

For assay [3], the target named is T1, fibrinogen. The experiment in a line: Fluorescence anisotropy (FA) saturation experiments with fluorescein-labelled peptides. The assay is classed as binding. The conditions noted are these: 5IAF-labelled peptide 25-30 μM, fibrinogen 50 nM-103 μM, HBS, 1 h room temperature; Hill model; n = 3. How it is done:
as §1
Equal volumes (100 μl) of a labelled peptide solution (5IAF-pep1, 5IAF-pep2, or 5IAF-pep3) in HEPES (4-(2-hydroxyethyl)-1-piperazineethanesulfonic acid)-buffered saline (HBS) and of a fibrinogen solution were mixed together by gentle pipetting into a 96-well plate to obtain final concentrations of fibrinogen ranging from 50 nM to 103 μM, and a constant peptide concentration, i.e., 26 μM for 5IAF-pep1, 25 μM for 5IAF-pep2, or 30 μM for 5IAF-pep3. […] All mixed reagents were incubated for 1 h at room temperature before recording fluorescence polarization values.

Where two headings read alike, the source gives them in different places. Ends that are not written are not given here.

On to aprotinin, for which the “HDFa migration rate in presence vs absence of the inhibitor” value in assay [1] is given as “virtually identical migration rates”. For the substance GPRP [glycine-proline-arginine-proline], the “effect on fibrin clotting” value in the assay on fibrin clotting (1:20 fibrinogen/peptide molar ratio) is on record as “significantly reduce fibrin clotting”; with fibrin clotting (above 1:100 fibrinogen/peptide molar ratio), “completely prevent”. For the substance “PEG-pep1: 2 kDa PEG vinyl sulfone conjugated to Pep1; rest of material PEG-ME (GPRPGCG; Cys6 thiol joined by thioether (Michael addition) to 2 kDa PEG vinyl sulfone; free N-terminus (A-knob mimic); about 20 mol% of the material is PEG-mercaptoethanol; The GC)”, the Kd in the assay with fibrinogen [2] came out at 135 ± 8 µM; with bovine fibrinogen, 103 ± 5 µM. GHRPGCG [Pep2]: the Kd on bovine fibrinogen is 351 ± 10 µM; on fibrinogen [3], 335 ± 6 µM. The corresponding values for GPRPGCG [Pep1] are 44 ± 9 µM and 40 ± 1 µM.

The values are drawn from publication PMC6481723, “Fibroblast migration correlates with matrix softness. A study in knob-hole engineered fibrin” (APL Bioengineering, 2018).
